Source: PMC8778022, “Synthesis and Biological Activity of 3-(Heteroaryl)quinolin-2(1H)-ones Bis-Heterocycles as Potential Inhibitors of the Protein Folding Machinery Hsp90” (Molecules, 2022)
“Also recorded” adds a separate entry of the source. Like-named read-outs stand apart in the source and are kept apart here.

Experiments:
MDA-MB-231 cells = assay: MTS cell viability assay, MDA-MB-231 cells, 72 h; type: cell-based, human; conditions: % of viable cells compared to untreated cells 100%; for viability at 10 µM / viability at 25 µM / viability at 15 µM: Homo sapiens, MDA-MB-231, 72 h
Description: (§1) Upon completion of their syntheses, the in vitro activity of quinolone derivatives 3a–f, 4a–h, and 5a,b was evaluated by their growth-inhibitory potency in three cancer cell lines. At first, the viability of the synthesized compounds was examined with the MDA-MB-231 […] breast cancer cell line at concentrations of 10 µM, 15 µM, and 25 µM. Prostate cancer PC-3 cells and human fetal lung fibroblast MRC-5 cell lines were also subjected to this series of compounds at a unique concentration of 15 µM.
(§2) MDA-MB-231 cells were grown in L15 supplemented with 15% serum, 2 mM glutamine, and 22 mM sodium bicarbonate in the presence of Penicillin/Streptomycin antibiotic mixture. PC-3 cells were cultured in RPMI 1640 supplemented with 10% serum and 2 mM glutamine in the presence of Penicillin/Streptomycin antibiotic mixture. MRC-5 cells were cultured in EMEM supplemented with 10% serum and 2 mM glutamine in the presence of Penicillin/Streptomycin antibiotic mixture (Reagents were purchased from Sigma Aldrich, Saint-Quentin-Fallavier, France).
(§3) Cells were treated for 72 h with 10, 15, and 25 µM of the selected substances. Control cells were treated with the equivalent in DMSO.
(§4) Cell survival was assessed using the CellTiter Aqueous One Proliferation assay (Promega, Charbonnières-les-Bains, France) whereby 2500 or 5000 cells per well were seeded in 96-well plates in 100 µL. At the end of the treatment, 20 µL of reagent was added, and absorbance readings were taken at 492 nm on a 96-well plate reader after 3 h of contact (on average).

PC-3 cells = assay: MTS cell viability / growth inhibition assay, PC-3 cells, 72 h; type: cell-based, human; conditions: for GI50: PC-3, concentration needed to reduce cell growth by 50%, 72 h treatment, estimated, read-out: GI50 anti-proliferative effect PC-3; for viability at 15 µM: PC-3, 72 h; for viability at 15 µM / Cell viability [%] PC-3 (15 µM): 72 h, MTS, % of viable cells compared to untreated cells 100%
Description: as §1
Then, the growth inhibitory activities against PC-3 prostate cancer cell line were measured for the selected 3-heteroaryl-quinolin-2(1H)-one derivatives 3a–e.
as §2, §3, §4

CDK-4 = assay: Western blot of Hsp90 client protein CDK-4 in PC-3 cells; type: cell-based, human; conditions: for CDK-4 client protein level (Western blot): PC-3 cells, 15 µM, 72 h; for CDK-4 client protein level: as printed in abstract and conclusions
Description: (§5) For protein expression analysis, cells were seeded at a rate of 0.75 × 10^6 cells on a 25 cm^2 surface. At the end of the treatment the cells were washed and lysed with RIPA buffer (Sigma Aldrich, Saint-Quentin-Fallavier, France city, country) to which protease inhibitors (Sigma Aldrich, Saint-Quentin-Fallavier, France SIGMA) were added. After 30 min of lysis on ice, the samples were centrifuged (3500 rpm, 10 min) and stored at −20 °C. Total protein concentration was obtained using the Bio-rad Protein Assay reagent (Bio-Rad Laboratories, Marnes-la-Coquette, France city, country). […] Immunorevelation was performed as follows: 1 h saturation of the membrane with TBS-Tween (0.1%)–5% skim milk followed by overnight incubation in primary antibody solution (antibodies were from Santa Cruz Biotechnologies, Clinisciences, Nanterre, France or from Sigma Aldrich, Saint-Quentin-Fallavier, France)(See Table 3). After 1 h of washing in 0.1% TBS-Tween, the membranes were contacted with the second horseradish peroxidase-coupled antibody. Detection of the chemiluminescence signal (SuperSignal Pierce reagent, Fisher Scientific, Illkirch, France) was performed using the ChemiBis gel Imager (DNR Bio-Imaging Systems, Israel).
(§6) Figure 2 Effects of quinolone analogues 3a–e, 4e and 5b on HSP90 machinery protein levels and on CDK-4 stability. PC-3 cells were grown and exposed to Hsp90 inhibitors (3a–e, 4e and 5b, 15 µM) as described in Experimental section for 72 h and cell lysates were analyzed by Western blotting with regard to the levels of CDK-4, Hsp90α/β and Hsp70. NT corresponds to untreated cells; D, DMSO-treated cells were used as controls, GADPH level is used for control in protein loading on gels.

Hsp90α/β = assay: Western blot of Hsp90 level in PC-3 cells; type: cell-based, human; conditions: 15 µM, 72 h, without triggering the HSR
Description: as §5, §6

Hsp70 = assay: Western blot of Hsp70 level in PC-3 cells; type: cell-based, human; conditions: 15 µM, 72 h, without triggering the HSR
Description: as §5, §6

[1] = MTS cell viability assay, MRC-5 cells, 72 h; type: cell-based, human; conditions: human, MRC-5 fetal lung fibroblast cells, % of viable cells compared to untreated cells 100%
Description: as §1, §2, §3, §4

SkBr3 cell lines = conditions: cited from earlier work
[2] = tested on: human fetal lung fibroblast MRC-5; assay: MTS cell viability assay, MRC-5 cells, 72 h; type: cell-based; conditions: % of viable cells compared to untreated cells 100%
Description: as §1, §2, §3, §4

MCF7 = conditions: Figure 1; cited from earlier work

| Compound | viability at 10 µM (MDA-MB-231 cells; 10 µM) [%] | viability at 25 µM (MDA-MB-231 cells; 25 µM) [%] | viability at 15 µM (PC-3 cells; Homo sapiens) [%] | viability at 72 h, 15 µM [1] [%] | viability at 15 µM (MDA-MB-231 cells) [%] | further results |
| --- | --- | --- | --- | --- | --- | --- |
| O=c1c(-c2nc3ccccc3n2Cc2ccccc2)cc2ccccc2n1Cc1ccccc1 [3a] | < 47 | ~30 |  |  |  | GI50 (PC-3 cells; Homo sapiens): 48 µM |
| COc1ccc(Cn2c(-c3cc4ccccc4n(C)c3=O)nc3cc(C)c(C)cc32)cc1 [3b] |  | ~30 | ≥ 56 |  |  | GI50 (PC-3 cells; Homo sapiens): 28 µM; IC50 (PC-3 cells; Homo sapiens, as printed in abstract and b26, refers to Table 2 (PC-3, 72 h), read-out: IC50 anti-proliferative activity): 28 µM; CDK-4 client protein level (Western blot) (CDK-4): more decreased; CDK-4 client protein level (CDK-4): significant decrease; Hsp90 level (heat shock response) (Hsp90α/β): stabilize; Hsp70 level (heat shock response) (Hsp70): stabilize |
| Cn1c(=O)c(-c2nc3ccccc3s2)cc2ccccc21 [3c] |  |  |  |  |  | GI50 (PC-3 cells; Homo sapiens): 37 µM |
| CSc1ncnc2c1nc(-c1cc3ccccc3n(C)c1=O)n2Cc1ccccc1 [3e, 3-(6-Methylthiopurine)-2-quinolone] |  |  | ≥ 56 |  |  | GI50 (PC-3 cells; Homo sapiens): 38 µM |
| COc1cc(-c2ncnc3c2nc(-c2cc4ccccc4n(C)c2=O)n3Cc2ccccc2)cc(OC)c1OC [4d, 3-[9-benzyl-6-(3,4,5-trimethoxyphenyl)-9H-purin-8-yl]-1-methylquinolin-2(1H)-one] |  |  |  | 71 to 79 |  |  |
| Cc1cc(C)cc(-c2ncnc3c2nc(-c2cc4ccccc4n(C)c2=O)n3Cc2ccccc2)c1 [4e, 3-[9-benzyl-6-(3,5-dimethylphenyl)-9H-purin-8-yl]-1-methylquinolin-2(1H)-one] |  |  | ≥ 56 | 71 to 79 |  | CDK-4 client protein level (Western blot) (CDK-4): degraded; also recorded: more decreased; CDK-4 client protein level (CDK-4): significant decrease; Hsp90 level (heat shock response) (Hsp90α/β): stabilize; Hsp70 level (heat shock response) (Hsp70): stabilize |
| Cn1c(=O)c(-c2nc3c(-c4ccc(F)cc4)ncnc3n2Cc2ccccc2)cc2ccccc21 [4h, 3-[9-benzyl-6-(4-fluorophenyl)-9H-purin-8-yl]-1-methylquinolin-2(1H)-one] |  | ~30 |  |  |  |  |
| COc1ccc(Nc2ncnc3c2nc(-c2cc4ccccc4n(C)c2=O)n3Cc2ccccc2)cc1 [5a, 3-{9-benzyl-6-[(4-methoxyphenyl)amino]-9H-purin-8-yl}-1-methylquinolin-2(1H)-one] | < 47 |  |  |  |  |  |
| COc1cc(Nc2ncnc3c2nc(-c2cc4ccccc4n(C)c2=O)n3Cc2ccccc2)cc(OC)c1OC [5b, 3-{9-benzyl-6-[(3,4,5-trimethoxyphenyl)amino]-9H-purin-8-yl}-1-methylquinolin-2(1H)-one] |  |  |  |  |  | CDK-4 client protein level (Western blot) (CDK-4): degraded; Hsp90 level (heat shock response) (Hsp90α/β): stabilize; Hsp70 level (heat shock response) (Hsp70): stabilize |
| CN1CCC(Oc2ccc3cc(-c4cc5ccccc5s4)c(=O)oc3c2)CC1 [(I)] |  |  |  |  |  | IC50 (SkBr3 cell lines; cell death, SkBr3): 980 nM |
| O=c1c(-c2nc3ccccc3n2Cc2ccccc2)cc2ccccc2n1Cc1ccccc1 [C00001] |  |  | 70 | 80 | 47 | Cell viability [%] MDA-MB-231 (MDA-MB-231 cells; 25 µM): 36% |
| COc1ccc(Cn2c(-c3cc4ccccc4n(C)c3=O)nc3cc(C)c(C)cc32)cc1 [C00002] | 60 |  |  | 95 | 60 | Cell viability [%] MDA-MB-231 (MDA-MB-231 cells; 25 µM): 23%; Cell viability [%] PC-3 (15 µM) (PC-3 cells): 61% |
| Cn1c(=O)c(-c2nc3ccccc3s2)cc2ccccc21 [C00003] | 55 | 65 | 61 | 88 | 72 |  |
| Cn1c(=O)c(-c2nc3ccccc3o2)cc2ccccc21 [C00004] | 98 | 98 |  |  | 98 |  |
| CSc1ncnc2c1nc(-c1cc3ccccc3n(C)c1=O)n2Cc1ccccc1 [C00005] | 73 | 50 |  | 88 | 70 | Cell viability [%] PC-3 (15 µM) (PC-3 cells): 61% |
| Cn1c(=O)c(-c2cc3ccccc3s2)cc2ccccc21 [C00006] | 98 |  |  |  |  |  |
| COc1ccc(-c2ncnc3c2nc(-c2cc4ccccc4n(C)c2=O)n3Cc2ccccc2)cc1 [C00007] | 66 | 87 | 73 | 94 | 81 |  |
| COc1cccc(-c2ncnc3c2nc(-c2cc4ccccc4n(C)c2=O)n3Cc2ccccc2)c1 [C00008] | 70 | 61 | 106 | 92 | 69 |  |
| Cn1c(=O)c(-c2nc3c(-c4ccccc4)ncnc3n2Cc2ccccc2)cc2ccccc21 [C00009] | 71 | 35 | 97 | 82 | 62 |  |
| COc1cc(-c2ncnc3c2nc(-c2cc4ccccc4n(C)c2=O)n3Cc2ccccc2)cc(OC)c1OC [C00010] | 60 | 55 | 89 |  | 47 |  |
| Cc1cc(C)cc(-c2ncnc3c2nc(-c2cc4ccccc4n(C)c2=O)n3Cc2ccccc2)c1 [C00011] | 57 | 50 |  |  | 62 | Cell viability [%] PC-3 (15 µM) (PC-3 cells): 56%; Cell viability [%] MRC-5 (15 µM) [2]: 71% |
| Cn1c(=O)c(-c2nc3c(-c4cccc5ccccc45)ncnc3n2Cc2ccccc2)cc2ccccc21 [C00012] | 73 | 92 | 88 | 98 | 81 |  |
| Cn1c(=O)c(-c2nc3c(-c4ccc(Cl)cc4)ncnc3n2Cc2ccccc2)cc2ccccc21 [C00013] | 56 |  | 91 |  | 57 | Cell viability [%] MDA-MB-231 (MDA-MB-231 cells; 25 µM): 27%; Cell viability [%] MRC-5 (15 µM) [2]: 79% |
| Cn1c(=O)c(-c2nc3c(-c4ccc(F)cc4)ncnc3n2Cc2ccccc2)cc2ccccc21 [C00014] | 55 |  | 97 | 84 | 42 | Cell viability [%] MDA-MB-231 (MDA-MB-231 cells; 25 µM): 17% |
| COc1ccc(Nc2ncnc3c2nc(-c2cc4ccccc4n(C)c2=O)n3Cc2ccccc2)cc1 [C00015] |  | 69 | 87 | 91 | 63 | Cell viability [%] MDA-MB-231 (MDA-MB-231 cells; 10 µM): 62% |
| COc1cc(Nc2ncnc3c2nc(-c2cc4ccccc4n(C)c2=O)n3Cc2ccccc2)cc(OC)c1OC [C00016] | 44 | 61 | 88 | 81 | 55 |  |
| COc1ccc(C(=O)Nc2cc3cc(Br)ccc3n(C)c2=O)cc1 [C00017, reference compound] | 76 |  |  |  |  |  |
| CO[C@@H]1[C@@H](OC(N)=O)[C@@H](O)[C@H](Oc2ccc3c(O)c(NC(=O)c4ccc(O)c(CC=C(C)C)c4)c(=O)oc3c2C)OC1(C)C [Novobiocin, novobiocin] |  |  |  |  |  | IC50 (MCF7): 260 µM |
| CC(C)NCCCn1c(Sc2cc3c(cc2I)OCO3)nc2c(N)ncnc21 [PU-H] |  |  |  |  |  | IC50 (SkBr3 cell lines; Figure 1): 50 to 90 nM |
